Source: patent US20030220524A1, “Sulfur containing compounds” (priority 2000, published 2003)

Tests used:
NB-4 leukemic cell line = assay: Fixed propidium iodide staining, flow cytometry; format: cell-based, human; settings: 48 h
mammalian cells = assay: Antiproliferative activity, summary grouping on the basis of MTT assays; format: cell-based; settings: in words
Description: (§1) Adherent cells were seeded at 67×10^3 cells/mL in a 96 well plate (Falcon, Mississauga, Ontario) the day prior to exposure to compound. Suspension cells were seeded at 27×10^4 cells/mL in a 96 well plate the day of exposure to compound. Mononucleated, T-cell depleted normal bone marrow cells were seeded at 67×10^4 cells/mL in a 96 well plate the day of exposure to compound. Compounds and solvent control were added to cells and assayed in triplicate or sextuplet. Following 48 h of incubation at 37° C. with 5% CO2, 40 μL of a 5 mg/mL solution of 3-[4,5-dimethylthiazol-2-yl]-2,5-diphenyltetrazolium bromide (MTT) substrate (Sigma) in Dulbecco's phosphate-buffered saline (D-PBS) was added. After 4 h of incubation at 37° C. with 5% CO2, the resulting violet formazan precipitate was solubilized by the addition of 80 μL of a 0.01 M HCI, 10% sodium dodecyl sulfate (SDS; Sigma) solution overnight at 37° C. with 5% CO2. The plates were then analyzed using the BioRad Benchmark Microplate Reader (BioRad Laboratories, Hercules, Calif.) at 570 nm to determine the optical density of the samples. MTT data was analyzed using Prism 3.0 (GraphPad Software, Inc., San Diego, Calif.) by the Chou-Talalay method. MTT graphs shown are a representative experiment.
Initially, the efficacy of ten synthetic OSCs was explored for their antiproliferative activity against mammalian cells. […]

[1] = tested on: 1232 melanoma tumour cell line; assay: MTT assay; format: cell-based; settings: 48 h, read-out: MTT50
Description: (§2) All cell lines were assayed as asynchronously growing cells. Leukemic cell lines, OCI-AML-2, OCI-AML-3 (referred to hereafter as AML-2 and AML-3, respectively), NB-4, KK, B1, G2, and W1 were cultured in alpha-minimal essential medium (α-MEM) (Princess Margaret Hospital Media Services) supplemented with 10% fetal bovine serum (FBS) (Sigma, St. Louis, Mo.). Non-transformed, diploid fibroblast lines WI38 and IMR90, were cultured in α-MEM and MEM F-15, respectively supplemented with 10% FBS. Media for IMR90 cells was also supplemented with 1.5 g/L bicarbonate and 1 mM pyruvate. Breast tumour cell lines, MDA-231, SK-BR-3, MCF-7, ZR-751, and melanoma tumour cell lines, WM9, WM983, WM793, 1232, were grown in α-MEM supplemented with 10% fetal bovine serum. Prostate tumour cell lines, DU145 and PC-3, were grown in RPMI 1640 media supplemented with 10% FBS. All cell lines were cultured in the presence of penicillin/streptomycin. Mononucleated cells were isolated from normal bone marrow using Ficoll hypaque and then T-cell depleted. T-cell depletion was performed by incubating the mononucleated bone marrow cells in α-MEM at a concentration of 2×10^7 cells/mL with 10% absor FBS and 10% (v/v) sheep red blood cells for 4 to 16 h. Absor FBS was prepared beforehand by heating FBS at 56° C. for 1 h, incubating with sheep red blood cells at 0.5% (v/v) for 1 h and then filtering the FBS with a […]. The T-cell depleted, mononucleated cells were recovered using Ficoll hypaque and were maintained in α-MEM supplemented with 20% FBS and 10% 5637 ? nditioned media. 5637 conditioned media ? s previously harvested from confluent 5637 cells after a 3 day incubation. Normal bone marrow from bone marrow transplant donor was collected following informed consent according to institutional guidelines.
(§3) Approximately 20 mg of each compound was dissolved in 5 mL of ACS grade acetone (Sigma) using a 5 mL volumetric flask. Stock solutions of the compounds were stored in the dark at −20° C. Compounds were diluted prior to each experiment.
as §1
(§4) Adherent cells were seeded at 67×10^3 cells/mL in a 96 well plate (Falcon, Mississauga, Ontario) the day prior to exposure to compound. Suspension cells were seeded at 27×10^4 cells/mL in a 96 well plate the day of exposure to compound. Mononucleated, T-cell depleted normal bone marrow cells were seeded at 67×10^4 cells/mL in a 96 well plate the day of exposure to compound. Compounds and solvent control were added to cells and assayed in triplicate or sextuplet. […]

[2] = tested on: DU145 prostate tumour cell line; assay: MTT assay; format: cell-based; settings: Homo sapiens, DU-145, 48 h, read-out: MTT50
Description: as §2, §3, §1, §4

[3] = tested on: WM983 melanoma tumour cell line; assay: MTT assay; format: cell-based; settings: 48 h, read-out: MTT50
Description: as §2, §3, §1, §4

## CSSCC(=O)c1ccccc1 [Compound P, phenacyl methyl disulphide]
NB-4 leukemic cell line; NB-4, dose 50 uM
  % pre-G1 (Fixed PI): 18%
NB-4 leukemic cell line; NB-4, dose 150 uM
  % pre-G1 (Fixed PI): 75%

## CSSc1ccc([N+](=O)[O-])cc1 [M, methyl p-nitrophenyl disulphide]
NB-4 leukemic cell line; cell line printed NBA, dose 20 uM
  % pre-G1 (Fixed PI): 16%
NB-4 leukemic cell line; cell line printed NBA, dose 40 uM
  % pre-G1 (Fixed PI): 60%

## CS(C)(=O)=O [Compound A, dimethyl sulfone]
Mammalian cells
  Antiproliferative activity (grouping in Summary of Results and Notes to the data sets): No anti-proliferative properties

## CCC(=O)OCSSc1ccccc1 [Compound Q, 1-phenyl-1,2-dithiapropyl propionate]
[1]
  IC50: 56 µM
[2]
  IC50: 65.4 µM
[3]
  IC50: 47 µM

## CSSCCS(C)(=O)=O [F, 2,3,6-trithiaheptane 6,6,-dioxide]
Mammalian cells
  Antiproliferative activity (grouping in Summary of Results and Notes to the data sets): Anti-proliferative Activity
